Experimental data: patent US9549884B2, “Retinoid derivatives and process for their preparation” (SELEGO AB, priority 2013, dated 2017)
In brackets after ≈: the same amount, converted by molar mass.

Tests used:
[1] = Storage stability study checked by HPLC; format: physicochemical; settings: 0-4° C., 40-90% humidity
Protocol: A comparison in stability between Compound (Ia) and the substance retin-15-yl ester retinoic acid (CAS No. 15498-86-9) was outlined by performing HPCL analysis of the two compounds throughout an extended storage period.
The stability study was performed at 0-4° C. and 40-90% humidity. The samples of each product, packed in polyethylene bag inside a closed polyethylene box, were maintained under the above mentioned condition for the given time (see below). The stability of the product was checked by HPLC analysis using the method reported here below: A Young Lin YL9100 HPLC System was equipped with a variable volume automatic injector and a YL-Clarity data system. A Capcellpack UG 120 C-18, 150×4.6 mm, 5 μm, column from Agilent Technologies was used with a column temperature of 25±2° C., a flow rate of 1.5 ml/min, an injection volume of 10 μl, a wavelength of 326 nm. The mobile phase was A: water containing 0.1% acetic acid; B: acetonitrile containing 0.1% acetic acid; C: methanol containing 0.1% acetic acid; and D: isopropanol. For a run time of 40 min the gradient was: […]
The Working Solution: dissolve the sample under stability study in acetonitrile in a concentration of 1 mg/ml and inject as it.
With reference to FIG. 1 and FIG. 2, the HPLC peaks with the highest area percentage (retention time 26.1 for Compound (1a) and 12.2 for retin-15-yl ester retinoic acid).

[2] = test system: reconstituted three-dimensional human epidermis model (EPISKIN-SM); experiment: In vitro skin irritation test, EPISKIN-Standard Model, MTT; format: cell-based
Protocol: The skin irritant potential of compound (1a) was analyzed with a reconstituted three-dimensional human epidermis model, the EPISKIN-Standard Model® (EPISKIN-SM®) as a replacement for the Draize Skin Irritation Test (OECD TG 404) to distinguish between UN GHS “Category 2” skin irritating test substances and not categorized test substances (“No Category”) which may be considered as non-irritant. Hereby, the test item was applied topically. Cytotoxicity is expressed as reduction of mitochondrial dehydrogenase activity measured by formazan production from MTT after a 15 min exposure and 42 h post incubation period and compared to those of the concurrent negative controls.
The relative mean tissue viability after 15 min of exposure and 42 h post incubation was >50%. The test item, compound (1a) is therefore classified as “non-irritant” in accordance with UN GHS “No Category”.

[3] = Highest soluble concentration in DMSO; format: physicochemical; settings: organic solvent or mixture
[4] = test system: BALB/c 3T3 cells; experiment: In vitro phototoxicity test, neutral red uptake with and without UVA; format: cell-based
Protocol: In the present study the phototoxicity effects of compound (1a) were analyzed by dissolving the test item in DMSO and diluting to 1.100 ratio with Earle's balanced test solution. BALB/C 3T3 cells were treated for 1 h with different concentrations of the test solution at 37±1±° C. and further 50 min in absence and in presence of a non-toxic dose of UVA light, respectively. One day after treatment cytotoxicity was analyzed as a measure of reduction of neutral red uptake and compared to the controls. […] However, since the calculated mean photo effect (MPE) is <0.1 (0.027 in a rangefinder experiment; 0.056 in the main experiment) the test item is classified as non-toxic.

[5] = In vitro skin corrosion membrane barrier test (CORROSITEX Assay)
Protocol: The skin corrosive potential of compound (1a) was analyzed. Corrosive chemicals are dependent on their grade of corrosivity able to break through the bio-barrier membrane employed in the “in vitro Membrane barrier test (CORROSITEX® Assay)” (see EVCAM (2000) ESAC statement on the application of the Corrositex® assay for skin corrosivity testing. The test system is composed of a synthetic bio-barrier that is placed on a chemical detection system (CDS). The time necessary to activate the CDS allows to distinguish between Corrosive© and non-corrosive (NC) test substances. Hereby the test item was placed atop the bio-barrier membranes. The CDS activation was assessed as a color change or a change in consistency. […] Compound (1a) accordingly was classified as non-corrosive.

| decrease of purity with respect to the starting time (HPLC) ([1]; in one month) [%] | stability (HPLC) ([1]; after about two months) | solubility [3] [µg/mL] | SMILES | relative mean tissue viability ([2]; 15 min exposure, 42 h post incubation) [%] | skin irritation classification (UN GHS) ([2]; UN GHS No Category) | phototoxicity classification ([4]; MPE <0.1) | cytotoxic effect with UVA radiation ([4]; in case of UVA radiation) | mean photo effect (MPE) ([4]; main experiment) | mean photo effect (MPE) ([4]; rangefinder experiment) | skin corrosivity classification [5] | mean time required to activate the CDS ([5]; Corrositex bio-barrier membrane) [min] |
| --- | --- | --- | --- | --- | --- | --- | --- | --- | --- | --- | --- |
| 5 | – | – | CC1=C(/C=C/C(C)=C/C=C/C(C)=C/COC(=O)/C=C(C)/C=C/C=C(C)/C=C/C2=C(C)CCCC2(C)C)C(C)(C)CCC1 [retin-15-yl ester retinoic acid, reference compound] | – | – | – | – | – | – | – | – |
| – | practically stable | 2000 (≈ 4.46 mM) | CC1=C(/C=C/C(C)=C/C=C/C(C)=C/C(=O)OCCNC(=O)c2cccnc2)C(C)(C)CCC1 [Compound (1a), 2-(nicotinamido)-ethyl retinoate] | > 50 | non-irritant | non-toxic | slight cytotoxic effect | 0.056 | 0.027 | non-corrosive | > 60 |
